Each structure is given as a SMILES string. “Also recorded” adds a separate entry of the source.

Experiment [1] deals with AMPA receptor-mediated EPSCs in primary hippocampal neurons. Description: AMPA receptor EPSC charge transfer during spontaneous synaptic bursts, whole-cell voltage clamp, cultured hippocampal neurons. Type of experiment: cell-based. Particulars: 30 μM; for charge transfer during bursts of AMPA receptor-mediated synaptic events as a percent of the charge transfer during the control period: voltage clamped at −70 mV. On the procedure: (§1) Experiments involving primary hippocampal neurons were carried out as described previously (Vivithanaporn et al., 2007). Dissociated neurons were cultured from E18 prenatal hippocampi and were used for analysis from between 17 and 28 days in vitro. The extracellular solution was the same as used for recombinant receptor analysis, while the internal solution for voltage clamp recordings contained (in mM) 95 CsF, 25 CsCl, 10 Cs-HEPES, 10 EGTA, 2 NaCl, 2 Mg-ATP, 10 QX-314, 5 TEA. and 5 4-AP (pH 7.3) and the internal solution for current clamp recordings contained (in mM) 120 KMeSO4, 5 KCl, 5 NaCl, 1 MgCl2, 11 Na-HEPES, 10 phosphocreatine, 4 Na-ATP, and 0.3 Na-GTP (pH 7.0). Borosilicate patch electrodes were pulled and fire polished to 3-5 MΩ resistance. Both whole cell current clamp and voltage clamp recordings were performed using an Axopatch 200B amplifier (MDS, Sunnyvale, Calif.) and filtered at 20 kHz. Gigaohm seals were established in voltage clamp mode and, after membrane rupture, the recordings were carried out either in voltage clamp (clamped at Vm=−70 mV) with a […] series resistance, which was compensated to ˜60%, or in current clamp mode ([…]) with the bridge balance was corrected and pipette resistance neutralized. In vitro status epilepticus (SE) was induced as described previously (Deshpande et al., 2007; Pal et al., 1999) and action potentials were recorded in current clamp mode. Briefly for in vitro SE, magnesium-containing external solution was exchanged for external solution without magnesium and supplemented with 2 μM glycine. This solution exchange produced a period of rapid depolarization and increased AP firing, followed by a period of channel inactivation and reduced AP firing. After channel inactivation, neurons characteristically would hyperpolarize to hold at a membrane voltage (Vm) which was depolarized relative to control Vm, with an increase in AP firing frequency. […] External solutions were bath-applied at a flow rate of 1.5-2 ml/minute. After recording a basal control period, IKM compounds were applied for five minutes (10 minutes for in vitro SE experiments) and changes in excitatory post-synaptic current (EPSC) charge transfer or action potential (AP) frequency were analyzed during the last two minutes of IKM application.
We first measured the actions of the IKM compounds on the charge transfer during spontaneously occurring, polysynaptic bursts of AMPA receptor excitatory post-synaptic currents (EPSCs) in cultured hippocampal neurons (recorded in the presence of bicuculline methiodide and picrotoxin to inhibit GABAA receptors and D-APV to inhibit NMDA receptors). […] IKM-159 had the greatest inhibitory effect at a fixed concentration of 30 μM, producing a reduction in charge transfer of 65±5% (n=6, p<0.01). […] Despite the polar chemical nature of the compounds, recoveries to basal EPSC charge transfers were minimal.

A further experiment concerns mice. Particulars: Ikoma et al., 2008; Oikawa et al., 2009 and unpublished observations; cited from earlier work.
For experiment [2], the target named is T1, recombinant homomeric GluA4 AMPA receptor (Rattus norvegicus, UniProt P19493).
T1 construct: expressed in transfected cells; host or cells: HEK293-T/17 (CRL-11268)
T1 sequence (P19493 21-902 isoform P19493-2 limits assumed): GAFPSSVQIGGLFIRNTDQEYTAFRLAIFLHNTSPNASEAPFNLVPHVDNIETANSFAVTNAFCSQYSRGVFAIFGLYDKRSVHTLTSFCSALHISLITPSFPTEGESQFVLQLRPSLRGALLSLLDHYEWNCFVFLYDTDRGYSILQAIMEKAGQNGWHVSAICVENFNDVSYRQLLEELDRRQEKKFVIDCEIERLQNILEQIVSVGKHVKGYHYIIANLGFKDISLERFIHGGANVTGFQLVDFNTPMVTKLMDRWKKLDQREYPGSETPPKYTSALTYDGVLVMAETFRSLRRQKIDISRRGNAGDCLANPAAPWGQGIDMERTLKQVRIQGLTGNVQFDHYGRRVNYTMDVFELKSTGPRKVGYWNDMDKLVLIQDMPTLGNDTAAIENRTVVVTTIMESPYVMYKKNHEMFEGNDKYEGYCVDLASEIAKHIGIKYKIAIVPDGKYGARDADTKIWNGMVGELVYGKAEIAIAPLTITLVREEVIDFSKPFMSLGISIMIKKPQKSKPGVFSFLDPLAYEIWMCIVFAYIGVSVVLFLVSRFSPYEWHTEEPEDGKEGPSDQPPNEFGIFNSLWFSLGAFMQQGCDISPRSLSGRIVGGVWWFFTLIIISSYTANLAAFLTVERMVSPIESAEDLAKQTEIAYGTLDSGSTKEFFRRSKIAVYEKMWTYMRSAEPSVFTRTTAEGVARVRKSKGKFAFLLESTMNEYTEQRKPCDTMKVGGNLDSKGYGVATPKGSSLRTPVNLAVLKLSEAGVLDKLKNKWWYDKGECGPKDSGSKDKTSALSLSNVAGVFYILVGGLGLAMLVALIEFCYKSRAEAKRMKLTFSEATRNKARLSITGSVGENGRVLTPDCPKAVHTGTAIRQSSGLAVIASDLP
Kind of experiment: Whole-cell patch clamp of recombinant GluA4 receptors in HEK293-T/17 cells. Type of experiment: cell-based. Particulars: for remaining activity at 30 µM: HEK293T/17, read-out: GluA4 peak current as percent of control amplitude; for inhibition at 30 µM: HEK293T/17, read-out: reduction from control GluA4 peak glutamate current amplitude (percent inhibition). The procedure: Cell Culture and Transfection. Human embryonic kidney cells expressing T-antigen, clone 17 (HEK293-T/17) (CRL-11268) were cultured at 37° C. with 5% CO2 in DMEM, including 100 μg/mL penicillin, 100 μg/mL streptomycin, and 10% heat-inactivated fetal bovine serum. Cells were split twice per week. For transfection, HEK293-T/17 cells were plated at 3×10^4 cells/cm^2 for pharmacology experiments and 5×10^3 cells/cm^2 for physiology experiments in fresh medium 24 h prior to transfection. Cells were transfected with AMPA or KA receptor plasmid cDNAs using Mirus Trans-IT transfection reagent (Minus Bio Corporation, Madison, Wis.) at a ratio of 1 μg cDNA: 3 μL Trans-1T reagent and maintained in transfection medium overnight followed by a media change the next day. Transfected cells were maintained in this medium until the experiment was conducted (48-72 h total post transfection).
Electrophysiology. For analysis of recombinant receptors, HEK293-T/17 cells were co-transfected with 0.2 μg of iGluR cDNA and 0.05 μg of eGFP. For heterologous GluA1/GluA2 receptors, the GluA1:GluA2 cDNA ratio was 1:6. Two to three days post-transfection, eGFP-expressing cells were lifted from the cover slip and voltage clamped in whole cell mode. The internal solution contained (in mM) 30 CsF, 110 CsCl, 10 HEPES, 4 NaCl, 5 EGTA and 0.5 CaCl2 (pH 7.3), while the extracellular solution contained (in mM) 140 NaCl, 10 glucose, 10 Cs-HEPES, 3 KCl, 2 CaCl2 and 1 MgCl2 (pH 7.3). Borosilicate patch electrodes were pulled and fire polished to 2-3 MO resistance. Lifted cells were maintained in a laminar stream of extracellular solution from a triple-barreled flow pipe, which was rapidly translated using a piezoceramic bimorph for fast application of glutamate or kainate alone or in combination with various antagonists (the 10-90% rise time of glutamate-evoked currents was ˜1 ms). IKM compounds were applied for three minutes with analysis performed on the final one minute of drug application.
Statistical analysis. At least three separate experiments were performed for each assay. For data involving three or more groups, a one-way analysis of variance (ANOVA) was performed with a Tukey-Kramer post hoc test for comparison amongst the groups. For data involving two groups, an unpaired student's t-test was performed; if the standard deviations between the two groups were statistically significant, a Welsh correction was added. If the data involving three or more groups or data involving two groups where multiple treatments were performed on the same sample, a repeated measures ANOVA and paired t-test were used, respectively, for analysis of significance. Dose-inhibition response curves were fitted, with the maximum value constrained to 100 and the minimum value constrained to values greater than or equal to zero, using the following equation in order to calculate the IC50 values: Response=minimum+(maximum−minimum)/(1+(IC50^hill slope/dose^hillslope)) All calculations for statistical analysis were carried out with Graphpad Prism4 software (La Jolla, Calif.). Data are presented as mean±S.E.M. with statistical significance set at p<0.05.
Background: Patch clamp records ionic current or voltage across a cell membrane.

For a further experiment, the system named is AMPA receptors. Particulars: cited from earlier work; for concentration range inhibiting AMPA receptors: Bleakman et al., 1996.
In experiment [3] the test system is cultured hippocampal neurons. Kind of experiment: Whole-cell current elicited in cultured hippocampal neurons. Type of experiment: cell-based. Particulars: 30 μM; GABAA and NMDA receptor antagonists present. On the procedure:
Experiments involving primary hippocampal neurons were carried out as described previously (Vivithanaporn et al., 2007). Dissociated neurons were cultured from E18 prenatal hippocampi and were used for analysis from between 17 and 28 days in vitro. The extracellular solution was the same as used for recombinant receptor analysis, while the internal solution for voltage clamp recordings contained (in mM) 95 CsF, 25 CsCl, 10 Cs-HEPES, 10 EGTA, 2 NaCl, 2 Mg-ATP, 10 QX-314, 5 TEA. and 5 4-AP (pH 7.3) and the internal solution for current clamp recordings contained (in mM) 120 KMeSO4, 5 KCl, 5 NaCl, 1 MgCl2, 11 Na-HEPES, 10 phosphocreatine, 4 Na-ATP, and 0.3 Na-GTP (pH 7.0). Borosilicate patch electrodes were pulled and fire polished to 3-5 MΩ resistance. Both whole cell current clamp and voltage clamp recordings were performed using an Axopatch 200B amplifier (MDS, Sunnyvale, Calif.) and filtered at 20 kHz. […] In vitro status epilepticus (SE) was induced as described previously (Deshpande et al., 2007; Pal et al., 1999) and action potentials were recorded in current clamp mode. […] After recording a basal control period, IKM compounds were applied for five minutes (10 minutes for in vitro SE experiments) and changes in excitatory post-synaptic current (EPSC) charge transfer or action potential (AP) frequency were analyzed during the last two minutes of IKM application. […]

The subject of experiment [4] is primary hippocampal neurons. Description: Spontaneous action potential firing, current clamp, cultured hippocampal neurons. The experiment is classed as cell-based. Particulars: 20 μM. The procedure:
as §1
Effects of IKM-159 on neuronal excitability. […] To determine if altered neuronal excitability could contribute to this behavioral phenotype, we examined the effect of IKM-86 and IKM-159 on action potential firing in cultured hippocampal neurons. Spontaneous action potentials were recorded in current-clamp mode before, during and after application of 20 μM IKM-86 and IKM-159. […]

For experiment [5], the system named is primary hippocampal neurons. Description: In vitro model of status epilepticus (Mg2+ removal, 2 μM glycine), action potential firing in hippocampal neurons. Particulars: 1 μM; SE 2.0±0.3 Hz. Type of experiment: cell-based. On the procedure: as §1
Several AMPA receptor selective antagonists reduce neuronal hyperactivity in both acute brain slice preparations and in in vitro models of epilepsy (Grasso et al., 1999; Szabados et al., 2001). […] We therefore tested the efficacy of IKM-159 in reducing the hyperactive neuronal phenotype in dissociated hippocampal neurons using an in vitro model of status epilepticus (SE) (Deshpande et al., 2007; Pal et al., 1999). […]

Turning to `O=C(O)C[C@@]12O[C@H]3CCCO[C@H]3C1CN[C@H]2C(=O)O` (stereo partly drawn) [IKM-110], in experiment [1], the “reduction from control charge transfer” value amounted to 34±12% and the “charge transfer during bursts of AMPA receptor-mediated synaptic events as a percent of the charge transfer during the control period” value came out at 66±12%. Also, the “behavioral phenotype in mice” value in the experiment with mice is recorded as “varying degrees of hyperactivity”. For the same compound, in experiment [2], the remaining activity at 30 µM is 86 ± 2% and the inhibition at 30 µM amounted to 14 ± 2%.

Turning to `CNC(=O)N1N=C(c2ccc(N)cc2)c2cc3c(cc2CC1C)OCO3` (stereo not drawn) [GYKI 53655], in the experiment on AMPA receptors, the “concentration range inhibiting AMPA receptors” value is listed as “low micromolar range”.

With `O=C(O)C[C@@]12O[C@H]3CCCCO[C@H]3C1CN[C@H]2C(=O)O` (stereo partly drawn) [IKM-98], in experiment [3], the whole-cell current elicited is on record as 380±160 pA. Besides, in experiment [1], the “reduction from control charge transfer” value was 11±14% and the “charge transfer during bursts of AMPA receptor-mediated synaptic events as a percent of the charge transfer during the control period” value is listed as 89±14%. Also, the “behavioral phenotype in mice” value with mice is “varying degrees of hyperactivity”. For the same compound, in experiment [2], the remaining activity at 30 µM worked out at 88 ± 2% and the inhibition at 30 µM was found to be 12 ± 2%.

Regarding `O=C(O)C[C@@]12O[C@H]3[C@H](O)[C@H](O)CO[C@H]3C1CN[C@H]2C(=O)O` (stereo partly drawn) [IKM-86], in experiment [1], the “reduction from control charge transfer” value is recorded as 42±8% and the “charge transfer during bursts of AMPA receptor-mediated synaptic events as a percent of the charge transfer during the control period” value is recorded as 58±8%. In addition, the “persistence of reduction in action potential firing frequency after removal of compound” value in experiment [4] is recorded as “prolonged”. Further, in experiment [4] (basal (spontaneous) firing), the “action potential firing frequency in presence of compound” value was determined as 0.9±0.3 Hz. Further, the “behavioral phenotype in mice” value in the experiment on mice is “hypoactive phenotypes similar to cataleptic states; also recorded: marked hypoactivity and immobility”. Moreover, in experiment [2], the remaining activity at 30 µM amounted to 81 ± 2% and the inhibition at 30 µM came to 19 ± 2%.

In the case of `O=C(O)C[C@@]12O[C@H]3C=CCN[C@H]3C1C(=O)N[C@H]2C(=O)O` (stereo partly drawn) [IKM-27], in experiment [1], the “reduction from control charge transfer” value was found to be 31±9% and the “charge transfer during bursts of AMPA receptor-mediated synaptic events as a percent of the charge transfer during the control period” value is 70±9%. The “behavioral phenotype in mice” value in the experiment with mice is given as “hypoactive phenotypes similar to cataleptic states”. Also, in experiment [2], the remaining activity at 30 µM amounted to 80 ± 6% and the inhibition at 30 µM is 20 ± 6%.

`CC1=NN=C(c2ccc(N)cc2)c2cc3c(cc2C1)OCO3` [GYKI 52466]: in the experiment with AMPA receptors, the “concentration range inhibiting AMPA receptors” value is given as “low micromolar range”.

On to `Cc1cc(-c2ccc(/N=N/c3ccc4c(S(=O)(=O)[O-])cc(S(=O)(=O)[O-])c(N)c4c3O)c(C)c2)ccc1/N=N/c1ccc2c(S(=O)(=O)[O-])cc(S(=O)(=O)[O-])c(N)c2c1O.[Na+].[Na+].[Na+].[Na+]` [EB], for which, at AMPA receptors (non-competitive antagonist, Keller et al., 1993, Weigand et al., 1998), the IC50 entry is listed as “high nanomolar-low micromolar range”.

Consider `N#Cc1cc2c(cc1[N+](=O)[O-])=NC(=O)C(=O)N=2` [CNQX, 6-cyano-7-nitroquinoxaline-2,3-dione, reference compound], for which the “AP firing frequency in SE condition with compound” value in experiment [5] came to 1.2±0.4 Hz.

Consider `O=C(O)C[C@@]12O[C@H]3[C@H](O)[C@H](O)CCO[C@H]3C1CN[C@H]2C(=O)O` (stereo partly drawn) [IKM-107], for which the whole-cell current elicited in experiment [3] stood at 47±11 pA. Also, in experiment [1], the “reduction from control charge transfer” value is given as 39±12% and the “charge transfer during bursts of AMPA receptor-mediated synaptic events as a percent of the charge transfer during the control period” value came to 62±12%. The “behavioral phenotype in mice” value in the experiment with mice was “varying degrees of hyperactivity”. For the same compound, in experiment [2], the remaining activity at 30 µM came out at 95 ± 2% and the inhibition at 30 µM was 5 ± 2%.

What is called inhibition is how much of the control response was suppressed.

These data come from patent US8895579B2, “Heterotricyclic AMPA receptor antagonists for treatment of epilepsy, pain, and other neurological disorders and diseases” (Northwestern University, priority 2010, dated 2014).
